We go through 25 molecules from patent publication US12171756B2, “NLRP3 modulators” (Innate Tumor Immunity, Inc., priority 2017, dated 2024).

Assay [1] relates to IL-1β production in PMA-differentiated THP-1 cells. Nature of the assay: Measurement of IL-1β production in PMA-differentiated THP-1 cells (ELISA, 4 hours). In kind it is cell-based, human. To be noted: assayed using one or more of the described procedures, read-out: NLRP3 hIL1B IC50. The gist of the method: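 THP-1 cells differentiated with PMA (10 μg/ml, 24 h), replated at 1×10^6 cells/ml in RPMI with 2% FBS and exposed to compounds (e.g. 0.1–100 μM, 1% DMSO final) for 4 hours. IL-1β in cell-free supernatant quantified by ELISA against vehicle control.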
On the technique in general: An ELISA detects its analyte on a solid surface through an enzyme-linked reagent.

For the next assay, the target named is T1, human TLR7 (Homo sapiens, UniProt Q9NYK1).
T1 construct: host or cells: human HEK-Blue cells (HEK293-derived) co-expressing TLR7 and an NF-kB/AP1-inducible SEAP reporter
T1 sequence (Q9NYK1 27-1049): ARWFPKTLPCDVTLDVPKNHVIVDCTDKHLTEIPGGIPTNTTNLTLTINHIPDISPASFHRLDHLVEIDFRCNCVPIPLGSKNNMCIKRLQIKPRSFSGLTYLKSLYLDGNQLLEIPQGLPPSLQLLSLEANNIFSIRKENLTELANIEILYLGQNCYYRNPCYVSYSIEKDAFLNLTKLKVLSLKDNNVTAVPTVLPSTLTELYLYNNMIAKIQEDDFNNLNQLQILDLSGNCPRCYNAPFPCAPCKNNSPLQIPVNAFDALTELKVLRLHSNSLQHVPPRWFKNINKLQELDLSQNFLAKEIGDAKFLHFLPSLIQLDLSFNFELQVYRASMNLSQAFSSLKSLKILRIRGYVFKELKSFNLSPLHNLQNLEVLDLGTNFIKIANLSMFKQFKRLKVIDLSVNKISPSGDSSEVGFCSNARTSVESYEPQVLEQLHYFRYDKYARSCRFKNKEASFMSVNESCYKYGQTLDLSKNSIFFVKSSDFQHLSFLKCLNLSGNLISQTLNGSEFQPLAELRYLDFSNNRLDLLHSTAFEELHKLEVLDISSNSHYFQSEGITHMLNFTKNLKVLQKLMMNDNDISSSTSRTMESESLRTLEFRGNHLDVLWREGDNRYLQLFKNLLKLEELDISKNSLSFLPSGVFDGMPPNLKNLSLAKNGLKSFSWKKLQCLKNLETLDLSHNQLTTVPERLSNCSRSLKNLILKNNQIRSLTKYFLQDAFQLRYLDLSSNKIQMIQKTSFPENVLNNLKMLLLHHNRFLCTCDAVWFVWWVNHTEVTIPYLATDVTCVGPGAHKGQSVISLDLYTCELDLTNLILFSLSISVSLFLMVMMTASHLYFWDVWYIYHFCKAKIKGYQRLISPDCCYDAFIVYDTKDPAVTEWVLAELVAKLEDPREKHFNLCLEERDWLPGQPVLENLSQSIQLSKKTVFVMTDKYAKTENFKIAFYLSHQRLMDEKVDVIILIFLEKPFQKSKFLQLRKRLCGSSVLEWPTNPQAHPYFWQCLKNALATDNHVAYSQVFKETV
Put plainly: In vitro human TLR7 binding reporter assay (HEK-Blue, NF-kB/AP1-inducible SEAP). The format is cell-based. To be noted: HEK-Blue human TLR7 SEAP reporter cells; activity range classes; read-out: TLR7 Agonist EC50. The gist of the method: (§1)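 HEK-Blue cells expressing human TLR7 or TLR8 with NF-kB/AP1-inducible SEAP reporter, plated 24 h, then compound-treated 18 h at 37° C, 5% CO2. EC50 normalized to 100% Ymax set by 50 μM reference standard.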
A general note: Reporter assays use an easily measured gene product as a stand-in for the process of interest.

For the next assay, the target named is T2, human TLR8 (Homo sapiens, UniProt Q9NR97).
T2 construct: host or cells: human HEK-Blue cells (HEK293-derived) co-expressing TLR8 and an NF-kB/AP1-inducible SEAP reporter
T2 sequence (Q9NR97 27-1041): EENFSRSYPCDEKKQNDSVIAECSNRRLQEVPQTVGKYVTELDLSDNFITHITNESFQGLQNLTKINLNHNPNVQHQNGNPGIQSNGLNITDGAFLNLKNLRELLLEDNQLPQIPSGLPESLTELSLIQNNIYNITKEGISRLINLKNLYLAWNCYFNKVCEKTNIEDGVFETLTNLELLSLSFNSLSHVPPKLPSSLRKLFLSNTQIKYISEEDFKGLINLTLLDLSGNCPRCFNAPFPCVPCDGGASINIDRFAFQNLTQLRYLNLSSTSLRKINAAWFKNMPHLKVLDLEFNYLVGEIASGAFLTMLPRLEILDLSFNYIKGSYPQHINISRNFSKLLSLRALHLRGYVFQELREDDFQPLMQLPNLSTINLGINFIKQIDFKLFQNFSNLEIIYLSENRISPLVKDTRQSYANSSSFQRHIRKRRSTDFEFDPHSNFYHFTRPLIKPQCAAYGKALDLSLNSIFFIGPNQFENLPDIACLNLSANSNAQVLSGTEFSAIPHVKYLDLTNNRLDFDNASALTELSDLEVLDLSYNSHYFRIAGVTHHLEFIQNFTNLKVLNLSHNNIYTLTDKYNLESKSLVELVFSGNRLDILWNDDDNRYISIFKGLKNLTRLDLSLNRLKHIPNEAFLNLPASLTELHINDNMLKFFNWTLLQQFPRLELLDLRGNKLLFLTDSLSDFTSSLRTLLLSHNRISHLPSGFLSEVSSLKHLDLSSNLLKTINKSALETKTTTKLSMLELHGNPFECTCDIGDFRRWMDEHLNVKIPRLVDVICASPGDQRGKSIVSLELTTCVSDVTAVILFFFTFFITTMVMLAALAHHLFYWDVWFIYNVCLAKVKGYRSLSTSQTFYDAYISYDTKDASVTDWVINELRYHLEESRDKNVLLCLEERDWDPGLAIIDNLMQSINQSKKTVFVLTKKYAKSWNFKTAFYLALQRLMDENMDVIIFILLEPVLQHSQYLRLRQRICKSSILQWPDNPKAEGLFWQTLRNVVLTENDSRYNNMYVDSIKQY
Nature of the assay: In vitro human TLR8 binding reporter assay (HEK-Blue, NF-kB/AP1-inducible SEAP). To be noted: HEK-Blue human TLR8 SEAP reporter cells; activity range classes; read-out: TLR8 Agonist EC50. The format is cell-based. Summed up:
as §1

[2] abbreviates: Homo sapiens, THP-1, human IL-1β production.

Structures can show the parent of a compound that is named as a salt. Where two headings read alike, the source gives them in different places.

For the molecule `Nc1cc(NC(CO)CO)c2ccc(-c3ccn[nH]3)cc2n1` [Compound 315, 2-((2-amino-7-(1H-pyrazol-5-yl)quinolin-4-yl)amino)propane-1,3-diol], in assay [1] (setting [2]), the half-maximal inhibitory concentration (IC50) was determined as 1520 nM. Besides, the concentration giving a half-maximal response (EC50) at human TLR7 and on human TLR8 was > 100 µM each time.

Turning to `Nc1cc(NCc2ncccn2)c2ccc(-c3ccn[nH]3)cc2n1` [Compound 316, 7-(1H-pyrazol-5-yl)-N4-(pyrimidin-2-ylmethyl)quinoline-2,4-diamine], the 50% inhibitory concentration (IC50) in assay [1] (setting [2]) was determined as 560 nM. Also, the EC50 on human TLR7 and on human TLR8 was > 100 µM each time.

Turning to `Nc1cc(NCc2cncnc2)c2ccc(-c3ccn[nH]3)cc2n1` [Compound 317], the IC50 in assay [1] (setting [2]) stood at 690 nM. For the same molecule, the half-maximal effective concentration (EC50) on human TLR7 and on human TLR8 was > 100 µM each time.

On to `Nc1cc(NCCCO)c2cc(F)c(-c3ccn[nH]3)cc2n1` [Compound 318, 3-((2-amino-6-fluoro-7-(1H-pyrazol-5-yl)quinolin-4-yl)amino)propan-1-ol], for which the IC50 in assay [1] (setting [2]) came to 70 nM. Moreover, the EC50 at human TLR7 and at human TLR8 was > 100 µM each time.

Consider `Cc1cc2c(NCCCO)cc(N)nc2cc1-c1ccn[nH]1` [Compound 319], for which the IC50 in assay [1] (setting [2]) was 25700 nM. The EC50 at human TLR7 and on human TLR8 was > 100 µM in each case.

For `COc1cc2c(NCCCO)cc(N)nc2cc1-c1ccn[nH]1` [Compound 320], in assay [1] (setting [2]), the half-inhibitory concentration (IC50) worked out at 27700 nM. In addition, the EC50 on human TLR7 and at human TLR8 was > 100 µM each time.

Regarding `Nc1cc(NCCc2cccs2)c2ccc(-c3cc[nH]n3)cc2n1` [Compound 322, 7-(1H-pyrazol-3-yl)-N4-(2-(thiophen-2-yl)ethyl)quinoline-2,4-diamine], the IC50 in assay [1] (setting [2]) stood at 610 nM. Besides, the EC50 on human TLR7 and on human TLR8 was > 100 µM in each case.

As to `Nc1cc(N[C@@H]2CCNC2)c2ccc(-c3ccn[nH]3)cc2n1` [Compound 323], in assay [1] (human IL-1β production), the concentration for half-maximal inhibition (IC50) came to 5720 nM. Moreover, the EC50 at human TLR7 and on human TLR8 was > 100 µM throughout.

Take `Nc1cc(N[C@H]2CCCNC2)c2ccc(-c3ccn[nH]3)cc2n1` [Compound 324]: in assay [1] (setting [2]), the IC50 came to 1760 nM. In addition, the EC50 on human TLR7 and at human TLR8 was > 100 µM each time.

As to `Nc1cc(NCC2CNC2)c2ccc(-c3ccn[nH]3)cc2n1` [Compound 325], the IC50 in assay [1] (setting [2]) was 23200 nM. The EC50 at human TLR7 and at human TLR8 was > 100 µM in each case.

Regarding `Nc1cc(NC[C@@H]2CCCNC2)c2ccc(-c3ccn[nH]3)cc2n1` [Compound 326], the IC50 in assay [1] (setting [2]) came to 24700 nM. In addition, the EC50 on human TLR7 and on human TLR8 was > 100 µM throughout.

Consider `Nc1cc(NCC2CCNC2)c2ccc(-c3ccn[nH]3)cc2n1` (stereo not drawn) [Compound 327], for which, in assay [1] (setting [2]), the IC50 worked out at 4660 nM. The concentration for a half-maximal effect (EC50) at human TLR7 and at human TLR8 was > 100 µM throughout.

For the molecule `Nc1cc(OCCc2ccsc2)c2ccc(-c3cc[nH]n3)cc2n1` [Compound 329, 7-(1H-pyrazol-3-yl)-4-(2-(thiophen-3-yl)ethoxy)quinolin-2-amine], the concentration for half-maximal inhibition (IC50) in assay [1] (setting [2]) worked out at 670 nM. Moreover, the EC50 at human TLR7 and on human TLR8 was > 100 µM throughout.

Take `Nc1cc(OCCc2ccsc2)c2ccc(-c3cccs3)cc2n1` [Compound 330]: the IC50 in assay [1] (setting [2]) was 24600 nM. For the same molecule, the EC50 on human TLR7 and on human TLR8 was > 100 µM in each case.

For the molecule `Nc1cc(OCCc2ccsc2)c2ccc(-c3ccsc3)cc2n1` [Compound 331], the IC50 in assay [1] (setting [2]) worked out at 14600 nM. For the same molecule, the 50% effective concentration (EC50) at human TLR7 and on human TLR8 was > 100 µM each time.

For the molecule `Nc1cc(OCC2(CO)COC2)c2ccc(-c3ccsc3)cc2n1` [Compound 332, (3-(((2-amino-7-(thiophen-3-yl)quinolin-4-yl)oxy)methyl)oxetan-3-yl)methanol], the 50% inhibitory concentration (IC50) in assay [1] (setting [2]) amounted to 650 nM. Also, the EC50 at human TLR7 and on human TLR8 was > 100 µM in each case.

With `Nc1cc(OCC2(CO)COC2)c2ccc(-c3ccn[nH]3)cc2n1` [Compound 333], the 50% inhibitory concentration (IC50) in assay [1] (setting [2]) was 1310 nM. Further, the EC50 at human TLR7 and at human TLR8 was > 100 µM each time.

Regarding `Nc1cc(OCC2(CO)CCC2)c2ccc(-c3cccs3)cc2n1` [Compound 334, (1-(((2-amino-7-(thiophen-2-yl)quinolin-4-yl)oxy)methyl)cyclobutyl)methanol], in assay [1] (setting [2]), the IC50 is 2620 nM. Besides, the half-maximal effective concentration (EC50) at human TLR7 and at human TLR8 was > 100 µM in each case.

Consider `Nc1cc(OCC2(CO)CCC2)c2ccc(-c3ccn[nH]3)cc2n1` [Compound 335], for which the IC50 in assay [1] (setting [2]) is 630 nM. Also, the concentration for a half-maximal effect (EC50) at human TLR7 and at human TLR8 was > 100 µM throughout.

Take `Nc1cc(OCC2(CO)CCC2)c2ccc(-c3ccsc3)cc2n1` [Compound 336]: the IC50 in assay [1] (setting [2]) was 2030 nM. The EC50 on human TLR7 and on human TLR8 was > 100 µM throughout.

As for `Nc1cc(OCCCC(F)(F)F)c2ccc(-c3ccsc3)cc2n1` [Compound 337], in assay [1] (setting [2]), the IC50 amounted to 9170 nM. The EC50 on human TLR7 and on human TLR8 was > 100 µM each time.

With `Nc1cc(NCC2(CO)COC2)c2ccc(-c3ccsc3)cc2n1` [Compound 338, (3-(((2-amino-7-(thiophen-3-yl)quinolin-4-yl)amino)methyl)oxetan-3-yl)methanol], in assay [1] (setting [2]), the IC50 came to 3410 nM. Further, the EC50 on human TLR7 and on human TLR8 was > 100 µM in each case.

On to `Nc1cc(-c2ccn[nH]2)c2ccc(-c3ccn[nH]3)cc2n1` [Compound 339, 4,7-di(1H-pyrazol-5-yl)quinolin-2-amine, HCl], for which the half-inhibitory concentration (IC50) in assay [1] (setting [2]) was determined as 480 nM. For the same molecule, the EC50 at human TLR7 and at human TLR8 was > 100 µM in each case.

Consider `Nc1cc(NCCc2cccnn2)c2ccc(-c3cc[nH]n3)cc2n1` [Compound 340, 7-(1H-pyrazol-3-yl)-N4-(2-(pyridazin-3-yl)ethyl)quinolin-2,4-diamine], for which the half-maximal inhibitory concentration (IC50) in assay [1] (setting [2]) amounted to 730 nM. In addition, the EC50 at human TLR7 and on human TLR8 was > 100 µM in each case.

Take `Nc1cc(NCCc2cccnn2)c2ccc(-c3ccsc3)cc2n1` [Compound 341, N4-(2-(pyridazin-3-yl)ethyl)-7-(thiophen-3-yl)quinolin-2,4-diamine]: the half-maximal inhibitory concentration (IC50) in assay [1] (setting [2]) is 620 nM. Also, the concentration for a half-maximal effect (EC50) at human TLR7 and at human TLR8 was > 100 µM each time.

By IC50 is commonly meant the concentration at which inhibition is half-maximal. Usually EC50 stands for the concentration needed to bring the measured effect to its halfway point.
